# Laboratory results from the supplement of paper PMC11127212.
# Columns and labels:
# [1] = retention time on BEH HILIC column (20 min gradient, 0.4 mL/min); higher = later elution; settings: LC: HILIC
# Description: (§1)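 Reference standards (20-100 uM) were separated by HILIC UPLC (BEH HILIC, 45 °C): acidic pH 3.0 ammonium formate/formic acid for ESI+ and basic pH 9.0 ammonium acetate/ammonia for ESI-. They were analysed on a Synapt G2-Si traveling-wave IMS-QTOF with nitrogen drift gas (WH 30 V; WV 800 m/s in ESI+ and 1000 m/s in ESI-).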
# [2] = collision cross section (TWIMS, N2) of ion [M+H]+; higher = larger gas-phase ion cross section; settings: ionization: ESI positive; LC: HILIC, pH 3.0 ammonium formate
# Description: as §1
# [3] = collision cross section (TWIMS, N2) of ion [M-H]-; higher = larger gas-phase ion cross section; settings: ionization: ESI negative; LC: HILIC, pH 9.0 ammonium acetate
# Description: as §1
# [4] = collision cross section (TWIMS, N2) of ion [M+H-H2O]+; higher = larger gas-phase ion cross section; settings: ionization: ESI positive; LC: HILIC, pH 3.0 ammonium formate
# Description: as §1, with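 “ESI-). CCS (TWCCSN2, Å2) was calibrated with Major Mix IMS/TOF and LockCCS leucine enkephalin; inter-day RSD was <1%.” for “ESI-).”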
# [5] = collision cross section (TWIMS, N2) of ion [M+Na]+; higher = larger gas-phase ion cross section; settings: ionization: ESI positive; LC: HILIC, pH 3.0 ammonium formate
# Description: as §1, with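 “ESI-). CCS (TWCCSN2, Å2) was calibrated with Major Mix IMS/TOF and LockCCS leucine enkephalin; inter-day RSD was <1%.” for “ESI-).”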
# [6] = collision cross section (TWIMS, N2) of ion [M+Na-2H]-; higher = larger gas-phase ion cross section; settings: ionization: ESI negative; LC: HILIC, pH 9.0 ammonium acetate
# Description: as §1, with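 “ESI-). CCS (TWCCSN2, Å2) was calibrated with Major Mix IMS/TOF and LockCCS leucine enkephalin; inter-day RSD was <1%.” for “ESI-).”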
# [7] = collision cross section (TWIMS, N2) of ion [M]+; higher = larger gas-phase ion cross section; settings: ionization: ESI positive; LC: HILIC, pH 3.0 ammonium formate
# Description: as §1, with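 “ESI-). CCS (TWCCSN2, Å2) was calibrated with Major Mix IMS/TOF and LockCCS leucine enkephalin; inter-day RSD was <1%.” for “ESI-).”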
# [8] = ionization: ESI negative, pH 9.0 ammonium acetate
# [9] = ionization: ESI positive, pH 3.0 ammonium formate
"retention time on BEH HILIC column [1, 8] [min]","retention time on BEH HILIC column [1, 9] [min]",collision cross section [2] [Å²],collision cross section [3] [Å²],collision cross section [4] [Å²],collision cross section [5] [Å²],collision cross section [6] [Å²],collision cross section [7] [Å²],SMILES
1.03,1.05,120.81,120.89,122.06,,,,Cc1c[nH]c(=O)[nH]c1=O [Thymine]
0.75,0.77,126.19,122.73,123.87,,,,Cc1cccc(O)c1 [m-cresol]
,5.74,146.07,,140.8,149.75,,,Nc1ccccc1C(=O)C[C@H](N)C(=O)O [L-kynurenine]
12.7,2.56,,128.56,130.12,,,,O=C(O)c1cccnc1C(=O)O [Quinolinic acid]
,0.82,,,114.1,,,,O=C(O)/C=C\C(=O)O [Maleic acid]
0.75,0.73,,179.19,,181.57,184.54,,CCCCCCCC/C=C\CCCCCCCC(=O)O [Oleic acid]
4.41,2.72,,144.75,135.63,,,,COc1cc([C@H](O)C(=O)O)ccc1O [Vanillylmandelic acid]
7.55,7.47,125.85,126.62,123.91,,,,O=C(O)[C@@H]1C[C@@H](O)CN1 [Hydroxyproline]
1.41,1.38,,126.41,126.57,,,,O=C(O)c1cc(O)ccc1O [Gentisic acid]
8.46,0.72,,129.91,134.39,,,,O=C(O)[C@H]1O[C@H](O)[C@H](O)[C@@H](O)[C@@H]1O [Glucuronic acid]
1.03,0.79,175.21,173.54,161.08,,,,CCCCCC/C=C\CCCCCCCC(=O)O [Palmitoleic acid]
7.23,7.22,123.7,116.46,,130.65,,,O=C(O)[C@@H]1CCCN1 [L-proline]
1.08,1.08,120.27,115.77,120.58,,,,O=c1cc[nH]c(=O)[nH]1 [Uracil]
8.94,8.96,,164.85,,,,162.11,Cc1ncc(C[n+]2csc(CCO)c2C)c(N)n1 [Thiamine]
2.08,1.96,145.63,146.44,144.55,150.01,,,CC(C)(CO)[C@@H](O)C(=O)NCCC(=O)O [Pantothenic acid]
3.4,2.31,155.86,159.47,,166.42,,,OC[C@H]1O[C@@H](n2cnc3c(O)ncnc32)[C@H](O)[C@@H]1O [Inosine]
6.8,6.59,131.48,132.57,,135.16,,,CSCC[C@H](N)C(=O)O [L-methionine]
2.16,2.11,142.08,146.28,138.2,,,,O=C(O)CNC(=O)Cc1ccccc1 [Phenylacetylglycine]

# Further lines, the molecule ahead of its results:
SMILES,"retention time on BEH HILIC column [1, 8] [min]","retention time on BEH HILIC column [1, 9] [min]",collision cross section [2] [Å²],collision cross section [3] [Å²],collision cross section [4] [Å²],collision cross section [5] [Å²],collision cross section [6] [Å²],collision cross section [7] [Å²]
C/C(=C/C(=O)O)C(=O)O [Citraconic acid],0.99,0.99,,120.54,124.18,,,
O=C(O)c1ccc(O)cc1 [4-hydroxybenzoic acid],0.67,0.73,,123.01,124.91,,,
C/C(=C\C(=O)O)CC(=O)O [3-methylglutaconic acid],1.75,1.45,,,,132.11,131.48,
Nc1c(O)cccc1C(=O)O [3-hydroxyanthranilic acid],1.12,0.9,,126.47,121.78,,,
N=C(NCCC[C@H](N)C(=O)O)N[C@@H](CC(=O)O)C(=O)O [Arginosuccinic acid],12.7,11.2,,164.65,160.05,,,
O=C(O)Cc1cccc(O)c1 [3-hydroxyphenylacetic acid],0.99,0.99,,,,139.98,132.19,
"O=C(O)c1ccc(C(=O)O)o1 [2,5-furandicarboxylic acid]",7.28,,,,,,129.41,
C[C@@H](CCC(=O)O)CC(=O)O [3-methyladipic acid],0.93,1.05,,131.84,,136.22,135.93,
CN(CC(=O)O)C(=N)N [Creatine],,7.83,122.23,,122.05,,,
CNC[C@H](O)c1ccc(O)c(O)c1 [Epinephrine],5.61,5.91,,140.21,136.45,,,
CN1CC(=O)NC1=N [Creatinine],1.98,2.79,120.17,120.56,,129.07,,
Nc1nc(=O)c2nc(CNc3ccc(C(=O)N[C@@H](CCC(=O)O)C(=O)O)cc3)cnc2[nH]1 [Folic acid],11.4,6.7,196.77,187.54,,201.44,,
